Measurements published in US6682739B1, “Methods of inhibiting osteoclastogenesis” (The Trustees of the University of Pennsylvania, priority 1999, dated 2004).
One block for each molecule: values may come before it. Positions of bridges follow the written chain, without caps; N, C: chain ends. No end group written: not given here.

What was measured:
[1] = test system: osteoclast formation (osteoclastogenesis); settings: co-culture induced by 1alpha,25-dihydroxyvitamin D3 and PGE2
[2] = test system: TNF-α receptor; settings: L929 lymphocytes; cited from earlier work
[3] = test system: TRANCE-induced marrow cultures (RANK Ligand/RANK interaction); experiment: TRANCE-induced marrow cultures; format: cell-based; settings: reciprocal dose-dependence of WP9QY and TRANCE
[4] = target: T1, TNF (UniProt P01375 77-233); experiment: inhibition of the TNF/TNF receptor interaction; format not described in Example 1
T1 construct: also called TNF-alpha; Tumor Necrosis Factor
T1 sequence (P01375 77-233 limits assumed): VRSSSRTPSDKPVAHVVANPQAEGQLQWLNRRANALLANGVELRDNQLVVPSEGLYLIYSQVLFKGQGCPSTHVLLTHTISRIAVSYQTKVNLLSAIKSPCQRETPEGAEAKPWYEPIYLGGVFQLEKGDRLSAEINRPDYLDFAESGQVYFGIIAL

[5] = test system: osteoclastogenesis and associated bone resorption; settings: administration in vivo; animal models that mimic osteopenic disorders; cited from earlier work

Molecule: CC(C)C[C@@H]1NC(=O)[C@H](Cc2ccc(O)cc2)NC(=O)[C@H](CCC(N)=O)NC(=O)[C@H](CO)NC(=O)[C@H](Cc2c[nH]c3ccccc23)NC(=O)[C@@H](NC(=O)[C@@H](N)Cc2ccc(O)cc2)CSSC[C@@H](C(=O)N[C@@H](Cc2ccc(O)cc2)C(=O)O)NC1=O [WP9QY, YC WSQYL CY]
inhibition of osteoclastogenesis, in words [1]: dose- and time-dependently inhibited | IC50 ([1]; read-out: IC50 for inhibition of osteoclastogenesis, peptide tested at about 5 μM to about 500 μM): 250 µM | antagonism of the effects of TNF-binding to the TNF-α receptor [2]: efficiently antagonized | effect on TRANCE-induced marrow cultures [3]: inhibits

IC50 [4]: 5 µM
B1: WP9QY (peptide)
peptide: YCWSQYLCY
modifications: disulfide 2-8
notes: Synthetic exocyclic peptide; also called WP9QY peptide; peptidomimetic (WP9QY)

B2: OPG: naturally occurring secreted protein with homology to members of the TNF receptor family; positive control in the TRAP assay (protein, UniProt O00300 22-401, looked up)
Tumor necrosis factor …: ETFPPKYLHYDEETSHQLLCDKCPPGTYLKQHCTAKWKTVCAPCPDHYYTDSWHTSDECLYCSPVCKELQYVKQECNRTHNRVCECKEGRYLEIEFCLKHRSCPPGFGVVQAGTPERNTVCKRCPDGFFSNETSSKAPCRKHTNCSVFGLLLTQKGNATHDNICSGNSESTQKCGIDVTLCEEAFFRFAVPTKFTPNWLSVLVDNLPGTKVNAESVERIKRQHSSQEQTFQLLKLWKHQNKDQDIVKKIIQDIDLCENSVQRHIGHANLTFEQLRSLMESLPGKKVGAEDIEKTIKACKPSDQILKLLSLWRIKNGDQDTLKGLMHALKHSKTYHFPKTVTQSLKKTIRFLHSFTMYKLYQKLFLEMIGNQVQSVKISCL
effect on osteoclastogenesis and associated bone resorption in vivo [5]: inhibits osteoclastogenesis and associated bone resorption
